Laboratory results from a melting point compilation (Tetko et al.; mined from patent text by program, amines drawn as free bases though some values may be those of a salt).

Row | SMILES | melting point [°C]
1 | CCOC(=O)C(=CNC1CC1)C(=O)c1c(F)c(F)c(F)c(F)c1F | 85 to 86
2 | CNc1ccc2ccccc2c1-c1c(P(c2ccccc2)c2ccccc2)ccc2ccccc12 | 100
3 | O=C(O)CCC(=O)c1ccc(F)c([N+](=O)[O-])c1 | 136
4 | C[C@H]1c2cc(F)ccc2-c2ccc(F)cc2N1S(=O)(=O)c1ccc(O)cc1 | 194 to 196
5 | CON(C)C(=O)COc1nnc(-c2ccc3c(c2)CCO3)o1 | 139 to 140
6 | N#CC1(C#N)CN=C(O)C(c2cc(O)c(O)c([N+](=O)[O-])c2)=N1 | > 300
7 | CCOc1nsc(NC(=O)Oc2ccccc2)c1C#N | 252 to 253
8 | O=C1c2cc(Cl)ccc2-n2cnc(Cl)c2[C@@H]2CCCN12 | 209 to 210
9 | COC(=O)C(C)(C)c1cn2nc(Cl)c(C)cc2n1 | 98 to 99
10 | C[C@@H](N[C@@H](Cc1c[nH]c2ccccc12)C(=O)O)[C@H](NC(=O)[C@@H](N)CC(N)=O)C(=O)O | 65 to 70
11 | CC(C)N1NC(c2ccc(F)cc2)=c2cc(Cl)ccc2=CS1(=O)=O | 147 to 151
12 | O=c1[nH]nc(-c2ccccc2[N+](=O)[O-])o1 | 157 to 158
13 | CCC(=O)NCCC1CNc2ccc3c(c21)CCO3 (stereo not drawn) | 96 to 98
14 | COc1cccc(-c2cccc3c2S(=O)(=O)NC(C2CCCCC2)N3)c1 (stereo not drawn) | 108 to 115
15 | CCSc1ccc(Cl)c(OS(C)(=O)=O)n1 | 40 to 41
16 | CCN(CC)CCNC(=O)c1cccc2c(=O)cc(-c3ccc([N+](=O)[O-])cc3)oc12 | 207 to 209
17 | N#CC1(N2CCN(c3ccccc3)CC2)CCCCC1 | 133 to 135
18 | CC1(C)CC(=O)c2c(Oc3ccccc3)sc(-c3cc[nH]n3)c2C1 | 232 to 234
19 | CC(C)(C)Sc1ssc(=S)c1Cl | 45
20 | CCC1(CC)C(=O)C(C)N(c2ccc(C#N)c(Cl)c2)C1=O (stereo not drawn) | 93.5 to 94.5
21 | O=C(CCCC1(c2ccccc2)CC(O)=C(SCc2ccccc2)C(=O)O1)NCc1ccccc1 (stereo not drawn) | 48 to 52
22 | O=C(N[C@@H]1CN[C@H]2CCO[C@H]21)C(F)(F)F (relative stereo) | 106 to 110

Row | SMILES | melting point [°C]
23 | CN(C)C=C(C#N)C(=O)c1ccc(C(C)(CN)C(=O)OC(C)(C)C)cc1 (stereo not drawn) | 160 to 162
24 | CC(C)(C)c1cc(OC(=O)c2ccccc2)ccc1O | 120 to 121
25 | O=Cc1cccn2cc(C(F)(F)F)nc12 | 98 to 100
26 | CC1Oc2ccc(O)cc2C=C1C=O (stereo not drawn) | 107 to 109
27 | CN1C(=O)CC[C@]2(C)c3ccc(SC(c4ccccc4)c4ccccc4)cc3CC[C@@H]12 | 102 to 104
28 | O=C1OCCC1=Cc1ccccc1OCC(O)CN1CCC(c2ccc3ccccc3c2)CC1 (stereo not drawn) | 127 to 128
29 | Cn1c(C2CC2)nc2c1CCCC2=O | 108
30 | CC1(C)CC(=O)C2(CCC(=O)O)CC1C2 | 90 to 93
31 | CS(=O)(=O)c1ccc(-c2ccccc2N2CCCCC2)cc1 | 140
32 | CCCCc1oc2ccc([N+](=O)[O-])cc2c1C(=O)c1ccc(OCCBr)cc1 | 81
33 | CCCN(CCC)Cc1nnc(-c2ncn3c2[C@@H]2CCCN2C(=O)c2c(Cl)cccc2-3)o1 | 158 to 160
34 | COC(CCOc1cc(C)ccc1C)C(C)(C)C(=O)O (stereo not drawn) | 76 to 77
35 | Clc1cccc(C2=CCN(Cc3ccccc3)CC2)n1 | 100 to 102
36 | O=C(O)CCC(O)c1ccc(-c2ccccc2)cc1 (stereo not drawn) | 139 to 140
37 | CCCSc1cc(C(=O)CCC(=O)c2cc(OC)c(OC)c(OC)c2)cc(OC)c1OCc1ccccc1 | 114 to 115
38 | CC1=NN(CCN2CCOCC2)S(=O)(=O)c2sc(S(N)(=O)=O)cc21 | 160 to 162
39 | O=C1c2ccccc2C(=O)N1OCc1cccs1 | 130 to 131
40 | CSc1nc(-c2nn[nH]n2)c(I)c(C(F)(F)F)n1 | 196 to 200
41 | CC1c2ccccc2-c2ccccc2N1S(=O)(=O)c1ccc(O)c(CO)c1 (stereo not drawn) | 182 to 184
42 | CCN(C(=O)C(C)CSC)c1sc(-c2cccnc2)nc1Cl (stereo not drawn) | 79 to 81
43 | O=[N+]([O-])c1ccc(OCc2ccccc2)c2cnsc12 | 158 to 160
44 | CC(=O)Nc1ccc(Nc2c([N+](=O)[O-])cc(C(=O)O)cc2S(=O)(=O)NC(C)=O)cc1 | 175 to 185

The next lines start with the values.

Row | melting point [°C] | SMILES
45 | 126 to 130 | COc1ccc(-c2nc(CNC(=O)CC(=O)O)sc2-c2ccc(OC)cc2)cc1
46 | 126 to 127 | COc1ccc(Nc2cnc3c(NCc4ccccc4)nc(NCCO)nc3c2)cc1
47 | 79 to 81 | CCOc1cccc(-c2ccc(C3=CCN(S(=O)(=O)CC(=O)OC)CC3)cc2C)c1
48 | 191 to 193 | COc1cc(Nc2c(C#N)cnc3cc(OCC4CCN(C)CC4)ccc23)c(Cl)cc1Cl
49 | > 220 | NC(=O)Nc1cc(Oc2ncccc2C(F)(F)F)c(Cl)cc1F
50 | 108 to 110 | COc1cccc(CNC(=O)[C@H]2N(C(=O)[C@@H](O)[C@@H](Cc3ccccc3)NC(=O)c3cccc(O)c3C)CSC2(C)C)c1
51 | 159 to 160 | CCOc1cc(OCC)c2c(c1)S(=O)(=O)N(COc1cc(C(F)(F)F)nn1-c1ccccc1)C2=O
52 | 128 to 129 | COC(=O)Cc1ccc2nc(Nc3ccccc3C)oc2c1
53 | 210 to 211 | O=C(O)C1CCCN1C(=O)CCc1cccc(-c2nc(=O)c3ccccc3s2)n1 (stereo not drawn)
54 | 90 to 96 | Nn1c(C(F)(F)F)cc(=O)n(-c2cc(Oc3ncccc3[N+](=O)[O-])c(Cl)cc2F)c1=O
55 | 205 to 208 | C[C@@H]1S[C@@H](C(=O)Nc2ccc(CN3C(=O)CCCC3=O)cc2)Cc2cc3c(cc2C1=O)OCO3
56 | 258 to 260 | COc1ccc(-c2cc(OCC(=O)O)nc(Nc3ccc(OC)c(Cl)c3)n2)cc1
57 | 177 to 178 | CC(C)(C)OC(=O)Nc1ccc(CC(=O)N2CCC(c3[nH]nc4c3C(=O)c3c(NC(=O)NN5CCOCC5)cccc3-4)CC2)cc1
58 | 181 to 194 | Nc1ncnc2cc(-c3ccc(C(F)(F)F)cc3)sc12
59 | 250 | Cc1cc2cc(CN3CCC(C(=O)N4CCCCC4)CC3)cnc2cc1NC(=O)c1ccc(-c2ccc(F)cc2)cc1
60 | 87 to 89 | COc1cc(N)c(Cl)cc1C(=O)NCC1CCN(CCCCC(=O)c2cn(C)c3ccccc23)CC1
61 | 131 | COC(=O)C(Cc1cccc(-c2nc(=O)c3ccccc3s2)c1)NC(=O)c1ccccc1 (stereo not drawn)
62 | 133 to 135 | CCc1nc2c(C)cc(C)nc2n1Cc1ccc2c(c1)CCc1ccccc1N2Cc1ccccc1C#N
63 | > 280 | Nc1c(F)c(N2Cc3cccc(Cl)c3C2)c(F)c2c1c(=O)c(C(=O)O)cn2C1CC1
64 | 105 to 107 | COC(=O)C(Cc1ccc(-c2nc3ccc(OC)cc3n2C)cc1)N=[N+]=[N-] (stereo not drawn)
65 | 225 to 226 | O=C(Nc1cnc2sc(CO)nc2c1)c1cc2cc(F)ccc2n1Cc1cccc(F)c1
66 | 172 to 173 | Cc1cnc(CNC(=O)c2sc(N3CCN(Cc4ccc(C(F)(F)F)cc4)C3=O)nc2C)cn1
67 | 179 to 181 | COc1c(Cl)ccc(-c2cc(N)c(Cl)c(C(=O)NOCc3nnsc3Cl)n2)c1F
68 | 210 to 212 | Cc1ccnc2c1nc(-c1cccnc1N)n2-c1ccc(CN)cc1
